Test results taken from patent publication US6248305A, “Boron heterocycle steroid mimics and associated pharmaceutical compositions and methods of use” (SRI International, priority 2000, dated 2001).

Assays:
MCF-7 cells = experiment: Antiproliferative assay, MCF-7 cells, alamar Blue; format: cell-based
Procedure: MCF-7 cells were obtained from the American Type Culture Collection (ATCC, Rockville, Md.). Exponentially growing cells were plated (96-well plates) in MEM (minimal essential medium) containing NaHCO3, CCD (charcoal-coated dextran)-stripped 10% FCS (fetal calf serum), and glycine. Cultures were incubated at 37° C. for 1 day, then treated with target by replacing the medium with 100 μL MEM containing supplements and target (3 wells at each of 5 concentrations). The relative effect of each concentration was compared to that of β-estradiol (positive control) by the alamar Blue™ assay (Biosource International),in which the dye is reduced by cellular mitochondrial enzymes to a soluble fluorophore with an intensity directly proportional to cell number. After cultures were incubated with target, alamar Blue™ diluted to 20% in MEM was added (100 μL/well) and cells were incubated for about 4 h, until a color change indicated sufficient amounts of reduced dye for quantitation. Relative cell number was evaluated directly from the plates by fluorimetry (560 nm excitation, 590 nm detection) on a Millipore 2300 CytoFluor. The concentration at which 50% effectiveness is seen (EC50) was calculated from statistically significant, reproducible effects. Statistical analysis was performed using JMP software (SAS Institute).

estrogen receptor = details: cited from earlier work
[1] = concentration 10^-5 (unit not given)
[2] = concentration 10^-6 (unit not given)
[3] = concentration 10^-7 (unit not given)
[4] = concentration 10^-8 (unit not given)
[5] = concentration 10^-9 (unit not given)

Compound: O=C1OB2c3ccc(O)cc3C=NN2c2ccccc21 [Compound 4, 1,2-dihydro-1,6-dihydroxy-2-(2-carboxyphenyl)-2,3,1-benzodiazaborine lactone]
- % Inhibition (MCF-7 cells; [1]): 13%
- % Inhibition (MCF-7 cells; [2]): 4%
- % Inhibition (MCF-7 cells; [3]): 2%
- % Inhibition (MCF-7 cells; [4]): 6%
- % Inhibition (MCF-7 cells; [5]): 0%

Compound: OB1c2ccc(O)cc2C=NN1c1ccccn1 [Compound 11, 1,2-dihydro-1,6-dihydroxy-2-(6-pyridinyl)-2,3,1-benzodiazaborine]
- % Inhibition (MCF-7 cells; [1]): 55%
- % Inhibition (MCF-7 cells; [2]): 10%
- % Inhibition (MCF-7 cells; [3]): 8%
- % Inhibition (MCF-7 cells; [4]): 8%
- % Inhibition (MCF-7 cells; [5]): 5%

Compound: COc1cccc(N2N=Cc3cc(O)ccc3B2O)n1 [Compound 15, 1,2-dihydro-1,6-dihydroxy-2-(2-methoxy-6-pyridinyl)-2,3,1-benzodiazaborine]
- % Inhibition (MCF-7 cells; [1]): 62%
- % Inhibition (MCF-7 cells; [2]): 3%
- % Inhibition (MCF-7 cells; [3]): 0%
- % Inhibition (MCF-7 cells; [4]): 0%
- % Inhibition (MCF-7 cells; [5]): 0%

Compound: CC/C(=C(\c1ccccc1)c1ccc(OCCN(C)C)cc1)c1ccccc1 [tamoxifen, reference compound]
- % Inhibition (MCF-7 cells; [1]): 95%
- % Inhibition (MCF-7 cells; [2]): 54%
- % Inhibition (MCF-7 cells; [3]): 29%
- % Inhibition (MCF-7 cells; [4]): 5%
- % Inhibition (MCF-7 cells; [5]): 0%

Compound: Estrone and Estradiol-17β, 3-carboranylmethyl Ethers
- affinity for the estrogen receptor (estrogen receptor): 0.5
